The values below come from US5977150A, “Amino acid derivatives of diaryl 1,3,4-oxadiazolone” (Bristol-Myers Squibb Company, priority 1999, dated 1999).

In data set [1] the test system is cloned mammalian (mSlo or hSlo) BK. Put plainly: Two-electrode voltage clamp of cloned BK-mediated outward current expressed in Xenopus oocytes. It counts as cell-based. The settings on record: 1 μM; at least 5 oocytes; IBTX 50 nM used to isolate BK current. On the procedure: (§1) The ability of the compound of Example 1 to open BK channels and increase whole-cell outward (K^+) BK-mediated currents was assessed under voltage-clamp conditions by determining their ability to increase cloned mammalian (mSlo or hSlo) BK-mediated outward current heterologously expressed in Xenopus oocytes [Butler, A., et al., Science, 261, pp. 221-224 (1993); and Dworetzky, S. I., et al., Mol. Brain Res., 27, pp.189-193 (1994)]. The two BK constructs employed represent nearly structurally identical homologous proteins, and have proven to be pharmacologically identical in our tests. To isolate BK current from native (background, non-BK) current, the specific and potent BK channel-blocking toxin iberiotoxin (IBTX) [Galvez, A., et al., J. Biol. Chem, 265, pp. 11083-11090 (1990)] was employed at a supramaximal concentration (50 nM). The relative contribution of BK channels current to total outward current was determined by subtraction of the current remaining in the presence of IBTX (non-BK current) from the current profiles obtained in all other experimental conditions (control, drug, and wash). […]

For data set [2], the system named is non-BK native currents in the oocytes. Description: Effect on non-BK (IBTX-insensitive) native currents in Xenopus oocytes under voltage clamp. The class given is cell-based. The note with it: at the tested concentration (1 μM). How it is done: as §1
In another data set the test system is cortical infarct volume. Description: Focal stroke model: permanent MCA and CCA occlusion with temporary right CCA occlusion. The class given is in vivo. The note with it: 10 μg/kg i.v. single bolus two hours after MCA occlusion; infarct measured 24 hours after MCAO; Wistar rat. On the procedure: To determine the ability of the compounds of the present invention to reduce cell loss resulting from neuronal ischemia, a standard focal cerebral ischemia is induced by permanent occlusion of the left middle cerebral artery (MCA) and common carotid artery (CCA) with one hour occlusion of the right CCA in the Wistar rat. The surgeries are performed using the sub-temporal approach of A. Tamura, et al., J. Cereb. Blood Flow Metab., 1, pp. 53-60, (1981) and its modifications [K. Osborne, et al., J. Neurol Neurosurg. Psychiatry, 50, pp. 402-410 (1987) and S. Menzies, et al., Neurosurgery, 31, pp. 100-107, (1992).]
The compound of Example 1 was evaluated in the focal stroke model involving permanent occlusion of the left MCA (MCAO) and CCA (CCAO) and temporary occlusion of the right CCA in the Wistar rat. This procedure results in a reliably large neocortical infarct volume that is measured by means of vital dye exclusion in serial slices through the brain 24 hours after MCAO. In the present test, compounds were administered using an i.v. or i.p. route of administration two hours after occlusion.

Data set [3] can be described thus: Rapid screen of prodrug hydrolysis and release of the drug in plasma. The settings on record: fresh rat plasma, 37° C., 10 μg/mL from a 1 mg/mL PEG-400 stock, analysis 5 minutes after incubation, HPLC. The class given is in vitro ADME. How it is done:
A rapid screen to determine the ability of prodrugs to hydrolyze and release the drug (compound of Example 1) is conducted as follows. A 1 mg/mL stock solution of the prodrug is prepared in distilled water or acetonitrile or PEG-400. Plasma from freshly collected rat or human blood is used in this assay. To 1 mL of plasma at 37° C. was added 10 μL of stock solution of prodrug and mixed gently. Immediately after the mixing, 100 μL of plasma was removed and quenched with 300 μL of acetontrile (Zero time sample). Samples were also obtained at 30 minutes and quenched immediately. The quenched samples were centrifuged to obtain a clear supernatant for analysis. The stock solution, T=0 and T=30 samples were analyzed by a HPLC assay that separates the drug from the prodrug. Based on the relative peak areas of prodrug and drug in these samples, different prodrugs are characterized as fast, moderate and slow release agents. For example, in this model, the compound of Example 9 was dissolved in PEG-400 at a concentration of 1 mg/mL and incubated at 10 μg/mL in fresh rat plasma at 37° C.

As to `O=c1oc(-c2ccc(C(F)(F)F)cc2)nn1Cc1cc(Cl)ccc1O` [Example 1, 3-[(5-Chloro-2-hydroxyphenyl)methyl]-5-[4-(trifluoromethyl)phenyl]-1,3,4-oxadiazol-2(3H)-one], in data set [1], the “BK current, % of control of IBTX-sensitive current” value is listed as 126 % of control. Also, the “effect on non-BK native currents in the oocytes” value in data set [2] is reported as “did not effect non-BK native currents”. For the same compound, the “reduction of cortical infarct volume vs vehicle-treated (water) control” value with cortical infarct volume is given as “about 18%”.
`CN[C@@H](CC(C)C)C(=O)Oc1ccc(Cl)cc1Cn1nc(-c2ccc(C(F)(F)F)cc2)oc1=O` [Example 9, 3-[(5-Chloro-2-hydroxyphenyl)methyl]-5-[4-(trifluoromethyl)phenyl]-1,3,4-oxadiazol-2(3H)-one, N-Methyl (L)-Leucine ester]: in data set [3], the “conversion of prodrug to drug (compound of Example 1) in plasma” value is “conversion of the compound of Example 9 to the compound of Example 1”.
